Data on 2 substances can be found in patent US20030198617A1, “Pharmaceutical tryptophan containing dipeptide compositions and methods of use thereof” (priority 1993, published 2003).

Like-named read-outs stand apart in the source and are kept apart here.

Common to all, as to format: in vivo, human
One assay deals with viral infection. The experiment in a line: Acute respiratory disease patients. The method, then: Patients with acute respiratory disease, including upper airway diseases, such as colds, are treated with Ile-Trp. […] Secondary infectious complications are diminished, and the duration of the treatment is also diminished.
There was noted a decrease in the specific signs of upper respiratory infections such rhinorrhea, sore throat, fever, muscle aches, headaches, and ear pain. Secondary infectious complications were diminished, and the duration of the treatment was also diminished.

Assay [1] can be described thus: Patients with various allergies.
The nature of another assay: Lymphangitis.
The nature of assay [2]: Pregnant women (Examples 34, 87). On the procedure: Ile-Trp is administered to pregnant women. The route of administration is IM or intranasally 100 μg daily for 5-10 days.
The route of administration is IM or intranasally 100 μg daily for 5-10 days. […] It was also noted that there was a decrease in fetal hypoxia.

A short description of the next assay: Bone fractures. The method, then: Ile-Trp is applied to patients with bone fractures of various origin, type and localization. Ile-Trp is administered intramuscularly or intranasally single daily at […] for 10 days.
The control group comprised 28 patients.

Another assay deals with herpetic lesions. Description: Recurrent herpetic lesions. The following applies: for recurrence of herpetic lesions: IM or intranasally.
Another assay can be described thus: Bronchial asthma. From the text:
Patients, children and adults, with bronchial asthma are studied. […] A significant reduction in bronchial obstruction and laryngotracheitis is noted.
A total of 37 patients, children and adults, with bronchial asthma and 28 similar patients as controls were studied. […] The significant reduction in bronchial obstruction and laryngotracheitis was noted. […] In some of the patients it was possible to avoid steroids in the conventional commitment treatment course. In the allowing year observation there was noted a decrease in the incidence of bronchial asthma 4.2 fold. In more than half of the patients the disappearance of drug and food allergy manifestations was noted.

Assay [3] is described as follows: Chemotherapy complications and side effects.
A short description of another assay: Psoriasis patients. The following applies: 10 days. On the procedure: Patients with psoriasis are treated with Ile-Trp and some patients are used as controls.
All patients had at a least 5 year history of […] treatment.

Assay [4] in a line: Antibiotic-treated patients with unfavorable allergological history. The method, then:
Ile-Trp is applied in patients treated with antibiotics for various indications who have unfavorable allergological history. Ile-Trp is administered IM or intranasally single daily at 100 μg for 5-10 days.
Control group comprised 43 patients.

The subject of a further assay is TB bacilli. Particulars: 5 doses.
Another assay relates to hemorrhagic Dengue Fever. Description: Hemorrhagic Dengue Fever (Examples 38, 94). From the text: Ile-Trp is applied in patients with hemorrhagic Dengue Fever. […]
It was also noted that the muscular and bone pain experienced typically was reduced, and the immunological indices were normalized.

A further assay can be described thus: Chronic osteomyelitis. On the procedure: Ile-Trp is prescribed to patients with chronic osteomyelitis of various etiology and localization. Ile-Trp is administered IM or intranasally single daily at 100 μg for 10 days.
The control group comprised 88 patients.

In assay [5] the test system is antibiotic-resistant staphylococci. The experiment in a line: Chronic skin diseases caused by antibiotic-resistant staphylococci. The method, then: Ile-Trp is administered to patients suffering from chronic skin diseases caused by antibiotic-resistant staphylococci. Ile-Trp is administered IM in single daily doses of 100 μg for 5 days and intranasally to a different group in the same daily and total dose. In the patients with signs of secondary T-immunodeficiency the staphylococci antibiotic sensitivity to one, few or all antibiotics is increased which then permits one to choose for each patient an effective antibiotic with exclusively high activity against a given pathogen.
47 patients with the same pathology but not treated with the immunomodulator were the control group. […] The differences between these methods of application were not noticed. In all the patients with signs of secondary T-immunodeficiency the staphylococci antibiotic-sensitivity to one, few or all antibiotics has been increased sharply (more than 100-fold) what permitted further to choose for each patient the antibiotic with exclusively high activity against pathogen. As a whole, within the examined group of patients the reliable decease of MIC of all studied antibiotics has been marked. The proposed treatment regiment permitted to obtain the complete recovery in 27 patients, significant improvement—in 8 patients and moderate improvement—in 1 patient.

The subject of another assay is Herpes Zoster. The experiment in a line: Herpes Zoster patients, with interferon. The following applies: for clinical effect: 100 μg, 10 days. On the procedure:
Patients with Herpes Zoster are treated with Ile-Trp in combination with conventional interferon treatment and some control patients with interferon alone. […] There is noted prevention of relapses, and some healing occurred earlier than control groups. Immunological indices correlates with clinical outcome.
There was noted prevention of relapses, and healing occurred on the average 40% earlier than control groups. Immunological indices correlated with clinical outcome.

The nature of another assay: Pyelonephritis. From the text:
The normal course of delivery in those women treated with IM862 was without complications.

A further assay has as its system flu. Particulars: 3 days, with anti-flu vaccination.
Assay [6] in a line: Toothpaste containing the dipeptide: dental caries, gingival disease.
A further assay is described as follows: Periapical granulomas. Particulars: 3 days. On the procedure:
Patients with periapical granulomas treated with Ile-Trp are tested.

Where [7] appears, read: IM862 100 μg IM or intranasally.

For the substance Glu-Trp [IM862], the clinical effect result was “milder course of the viral infection” in the assay with viral infection (IM862 100 μg 3-7 days, 186 patients); “disappearance of allergic reactions” in assay [1] (IM862 1 μg/kg 5-7 days, 29 patients); “controls the advance of lymphangitis” in “Lymphangitis” (IM862 100 μg); “resolution of weakness, dizziness, and increased appetite” in assay [2] (IM862 100 μg daily 5-10 days, 34 women); “less severe clinical symptoms” in the assay “Bronchial asthma” (IM862 IM 1 μg/kg 5-10 days, 37 patients); “fewer complications and side effects related to chemotherapy” in assay [3] (IM862 during chemotherapy). Moreover, the clinical effect result was “disappearance of toxic symptoms” with TB bacilli (IM862 50 to 100 μg every other day, 2 months after the course, 37 patients); “reduction in fever” with hemorrhagic Dengue Fever (IM862 IM 100 μg 3 days with conventional therapy, 21 patients); “pronounced positive influence on clinical course” in “Chronic osteomyelitis” (IM862 100 μg 10 days, 176 patients); “accelerated regression of foci of herpetic infection” in the assay on Herpes Zoster (IM862 with interferon, 37 patients); “reduction of fever” in the assay “Pyelonephritis” (IM862 100 μg 5-10 days with conventional therapy, 27 patients); “reduction of gingival disease and reduction in dental caries” in assay [6] (toothpaste containing IM862). Further, the clinical effect result in the assay “Periapical granulomas” (IM862 100 μg instillation, 46 patients) is reported as “accelerated arrestation of the inflammatory process”. Also, the consolidation of fractures result in the assay “Bone fractures” (IM862, 10 days, 44 patients) is reported as “accelerated essentially”. In addition, in the assay with herpetic lesions (IM862 in combination with interferon, 7-10 outbreaks per year before), the “outbreaks per year after treatment” value was “less than one outbreak per year”. In addition, in the assay on herpetic lesions (IM862 topically), the “recurrence of herpetic lesions” value was “marked reduction of recurrence of herpetic lesions”. In “Bronchial asthma” (IM862, following year observation), the “decrease in the incidence of bronchial asthma” value amounted to 4.2 fold. Besides, the “significant improvement, share of patients” value in “Psoriasis patients” (setting [7]) was 60%. Further, in “Psoriasis patients” (setting [7]), the “total recovery, share of patients” value is 33%. Further, the “improvement, share of patients” value in “Psoriasis patients” (IM862 100 μg IM or intranasally, 30 patients) is 7%. Also, the “allergic reactions to antibiotics” value in assay [4] (IM862 100 μg 5-10 days, 76 patients, majority of cases) was “prevented the arising of allergic reactions”. For the same substance, in assay [5] (IM862 100 μg 5 days, patients with secondary T-immunodeficiency), the “increase of staphylococci antibiotic-sensitivity” value was “more than 100 fold”. The “complete recovery, number of patients” value in assay [5] (IM862 treatment regimen) worked out at 27 patients. The “moderate improvement, number of patients” value in assay [5] (IM862 treatment regimen) turned out to be 1 patient. Moreover, the “significant improvement, number of patients” value in assay [5] (IM862 treatment regimen) is reported as 8 patients. For the same substance, the “healing earlier than control groups” value in the assay on Herpes Zoster (IM862 with interferon, on the average) was determined as 40%. For the same substance, in the assay on flu (IM862 50 μg, 268 persons), the “sickness rate for 12 months” value is reported as “significant decrease of sickness rate”.
Turning to Ile-Trp, the clinical effect entry with viral infection (Ile-Trp 100 μg 3-7 days) was “milder course of the viral infection”; in assay [1] (Ile-Trp 1 μg/kg 5-7 days), “disappearance of allergic reactions”; in “Lymphangitis” (Ile-Trp 100 μg), “controls the advance of lymphangitis”; in assay [2] (Ile-Trp 100 μg daily 5-10 days), “resolution of weakness, dizziness, and increased appetite”; in the assay “Bronchial asthma” (Ile-Trp IM 1 μg/kg 5-10 days) it was “less severe clinical symptoms”; in assay [3] (Ile-Trp during chemotherapy), “fewer complications and side effects related to chemotherapy”. In addition, the clinical effect result in “Psoriasis patients” (Ile-Trp 100 μg IM or intranasally) was “improvement in most of the patients, and total recovery in some of the patients”; in the assay with TB bacilli (Ile-Trp 50 to 100 μg every other day, with conventional therapy), “disappearance of toxic symptoms”; in the assay on hemorrhagic Dengue Fever (Ile-Trp IM 100 μg 5 days with conventional therapy), “reduction in fever”; in the assay “Chronic osteomyelitis” (Ile-Trp 100 μg 10 days), “pronounced positive influence on clinical course”; with Herpes Zoster (Ile-Trp with interferon) it was “accelerated regression of foci of herpetic infection”; in the assay “Pyelonephritis” (Ile-Trp 100 μg 5-10 days with conventional therapy), “reduction of fever”. Further, the clinical effect entry in assay [6] (toothpaste containing Ile-Trp) is “reduction of gingival disease and reduction in dental caries”; in “Periapical granulomas” (Ile-Trp 100 μg instillation), “accelerated arrestation of the inflammatory process”. For the same substance, the consolidation of fractures result in the assay “Bone fractures” (Ile-Trp, 10 days) is “accelerates essentially”. In addition, the “recurrence of herpetic lesions” value in the assay on herpetic lesions (Ile-Trp topically) is given as “marked reduction of recurrence of herpetic lesions”. Moreover, the “allergic reactions to antibiotics” value in assay [4] (Ile-Trp 100 μg 5-10 days) was “prevents the arising of allergic reactions”. For the same substance, the staphylococci antibiotic sensitivity entry in assay [5] (Ile-Trp 100 μg 5 days, patients with secondary T-immunodeficiency) is listed as “is increased”. Further, the “sickness rate for 12 months” value with flu (Ile-Trp 50 μg) was “significant decrease of sickness rate”.
